Assay results: article PMC4558628 (International Journal of Clinical Pharmacology and …, 2014)
Where “and” joins values, the source holds several entries; their conditions need not be identical. Equal entries are not always repeated. Where two headings read alike, the source gives them in different places.

What was measured:
[1] = Study 1: effect of steady-state rifampin on single-dose pharmacokinetics of canagliflozin, M7 and M5; settings: day 10 (with canagliflozin, fasted) vs day 9 (alone, fed)
Text: (§2) For each study, the participants were enrolled at different individual study centers in the US. Study 1 (rifampin study, NCT01395927) was a single-center, open-label, fixed-sequence study to evaluate the effects of steady-state rifampin on the single-dose PK of canagliflozin. The study consisted of a screening period of 20 days (from day –21 to ‒2), a 14-day open-label period (from day –1 to 13), followed by an end-of-study period (5 – 7 days) consisting of follow-up assessments. Participants received canagliflozin 300 mg (tablet) q.d. on day 1 and rifampin 600 mg q.d. (as two 300 mg capsules) on days 4 – 9. On day 10, canagliflozin (300 mg) plus rifampin (600 mg) was administered, followed by rifampin alone (600 mg) administration on days 11 – 12. The study drugs were administered under a fasted state.
(§3) Study 1: Venous blood (4 mL each) samples for the determination of canagliflozin, M7, and M5 plasma concentrations were collected pre-dose, and up to 72 hours post-dose (at 0.5, 1, 1.5, 2, 3, 4, 6, 8, 10, 12, 16, 24, 48, and 72 hours) on days 1 and 10. Urine samples for the determination of canagliflozin, M7, and M5 in urine were collected over the intervals of 0 – 4 hours, 4 – 12 hours, 12 – 24 hours, 24 – 48 hours, and 48 – 72 hours on days 1 and 10. Venous blood samples (2 mL each) for the determination of rifampin plasma concentrations were collected 2 hours after rifampin administration on days 9 and 10.
(§4) Blood samples for canagliflozin, M7 and M5, rifampin and probenecid were centrifuged (10 minutes at 1,300 rpm), and the obtained plasma was stored at or below –20 °C. […] Urine samples were collected in polyethylene containers for the PK evaluation of canagliflozin, M7, and M5. Two aliquots (3 mL in study 1 and 2 mL in study 2) of urine sample were transferred into polyethylene tubes and were stored at or below –20 °C.
(§5) The EDTA plasma samples were analyzed to determine the concentrations of canagliflozin with a validated [29, 30] liquid chromatography coupled to tandem mass spectrometry/mass spectrometry (LC-MS/MS) method (Frontage, Shanghai, China). A ^13C6 analogue of canagliflozin was used as internal standard (IS). Briefly, the sample was processed using a liquid-liquid extraction with tert-butyl methyl ether. The LC phase used a 5 cm × 4.6 mm column packed with XBridge C18 (Waters, Milford, MA, USA) with a mobile phase of ammonium acetate 0.01M (30%) and methanol (70%), and a flow rate of 1.2 mL/min. Quantification was achieved by MS/MS detection with an API4000, equipped with TurboIonSpray (TIS) interface (AB Sciex, Framingham, MA, USA), in the positive ion multiple reaction monitoring (MRM) mode. Canagliflozin and IS were monitored at mass transitions m/z 462.1 → 267.0 and m/z 468.1 → 273.0, respectively. The quantitation range was 5.0 – 10,000 ng/mL.
(§6) Plasma (validated) and urine (qualified) concentrations of M7 and M5 were also determined using ^13C6-canagliflozin as IS at Frontage Laboratories (Shanghai) Co., Ltd. Samples underwent protein precipitation, with acetonitrile. The LC-MS/MS quantitation was done with the same equipment as for canagliflozin. The LC phase used a 5 cm × 4.6 mm column packed with XBridge C18 with a mobile phase of ammonium acetate 0.01M (pH 4) and methanol at ratio 40/60 (v/v) at a flow rate of 1.2 mL/min. After 3.5 minutes, the composition was changed to 98% methanol for 1 minute to flush the column. Using positive ion MRM on an API4000, equipped with TIS, both metabolites were measured at mass transition m/z 638.2 → 427. The quantitation range was 5.0 – 10,000 ng/mL for both metabolites in plasma, and 100 – 100,000 ng/mL in urine.
(§7) Pharmacokinetic analyses of plasma and urine concentrations was done by non-compartmental method using validated WinNonlin® software Version 5.2.1 (Pharsight Corporation, Mountain View, CA, USA).

[2] = Study 1 safety: treatment-emergent adverse events; settings: drug administered alone; n = 14
Text: as §2
(§8) Safety and tolerability were monitored throughout all three studies by evaluation of the incidence and the type of treatment-emergent adverse events (TEAEs), and change from baseline in: clinical laboratory tests (including hematology, serum chemistry, urinalysis, and urine uric acid analysis (study 2 only)), physical examination of all body systems except genitalia and breast (by a study physician), body weight, height, and BMI, vital signs (including systolic and diastolic blood pressure, heart rate, and body temperature), and 12-lead electrocardiographys (ECGs) (including cardiac rhythm, waveform morphology, and interval duration).
(§9) Results of the clinical laboratory parameters and vital signs were summarized using descriptive statistics.

[3] = parameters: method as in PMID 21189429, PMID 6643696; settings: under fed conditions; cited from earlier work
OAT1 = settings: in vitro studies; no reference given; cited from earlier work
[4] = Safety and tolerability across the three studies; assay type: in vivo, human
Text: as §8, §9

[5] = in vivo
Text: as §2, §3, §4, §5, §6, §7

P-glycoprotein (P-gp) = tested on: P-glycoprotein (P-gp); parameters: method as in earlier work; settings: in vitro experiments; cited from earlier work
[6] = human, in vivo
Protocol: (§10) The study consisted of a 3-week screening period (from day –22 to –2), an 11 day open-label period (from day –1 to 10), followed by an end-of-study period consisting of 2 follow-up assessments occurring from 7 to 10 days and again from 14 to 18 days after the last dose of the study drug administration. Canagliflozin 300 mg (tablet) q.d. was administered on days 1 through 8 under fasted state.
Study 3: Venous blood (4 mL each) samples for the determination of canagliflozin plasma concentration were collected at pre-dose on days 2, 3, 4, 5, and 6, and at pre-dose and up to 24 hours post-dose (at 0.5, 1, 1.5, 2, 3, 4, 5, 6, 10, 12, 16, and 24 hours) on days 7 and 8.
as §4, §5
Pharmacokinetic analyses of plasma and urine concentrations was done by non-compartmental method using validated WinNonlin® software Version 5.2.1 (Pharsight Corporation, Mountain View, CA, USA). […] The assessed pharmacokinetic parameters of canagliflozin, M7, and M5 in study 2, and of canagliflozin in study 3 were: Cmax during a dosing interval at steady state (Cmax.ss), observed plasma concentration before dosing or at the end of a dosing interval (Ctrough; only for canagliflozin), tmax during a dosing interval at steady state (tmax.ss), and AUC during a dosing interval at steady state (AUCτ.ss). Additionally, M/P ratio (corrected for the differences in molecular weights) for Cmax.ss, AUCτ.ss, Ae during a collection interval (Aet1-t2), %Ae dose, and CLR were calculated for study 2.
A mixed-effects model was fitted to the log-transformed data of AUC or Cmax as dependent variables, treatment (with or without coadministration of the other drug) as a fixed effect, and participant as a random effect. The estimated least-square means and intra-participant variability from the mixed-effect model was used to construct 90% confidence interval (CI) for the difference in means of AUC or Cmax on the log-scale between the two treatments. The limits of the CIs were retransformed using antilogarithms to obtain the 90% CI for the ratio of the geometric mean AUC or Cmax.

OATP1B1 = settings: in vitro studies; no reference given; cited from earlier work
OAT3 = settings: no reference given; cited from earlier work
[7] = tested on: multidrug resistance protein 2 (MRP2); parameters: method as in earlier work; settings: in vitro experiments; cited from earlier work
[8] = Study 3 safety: treatment-emergent adverse events; assay type: in vivo, human
Protocol: as §10, §8

P-gp = tested on: P-gp; parameters: method as in unpublished data; settings: MDR1-expressing MDCK cells; ref unpublished data; cited from earlier work
[9] = parameters: method as in PMID 23670707; settings: cited from earlier work
[10] = in vivo; remark: listed apart in the source
Text: as §2, §8, §9

[11] = Study 2: effect of multiple-dose probenecid on steady-state pharmacokinetics of canagliflozin, M7 and M5; assay type: in vivo, human; settings: for trough plasma concentration, mean (SD): canagliflozin 300 mg q.d.; for % Ae (dose): cumulative amount excreted into the urine: corrected for molecular weight when necessary; for tmax.ss: median (range)
Protocol: (§1) The study consisted of a 19-day screening period (from day –21 to –3), a 20 day open-label period (from day –2 to 18), followed by an end-of-study period (7 – 10 days). […] Participants received study drugs under fasted state on days 14 and 17. On all other study days, participants received a standardized meal 1 hour after the study drug administration. Diet was standardized in order to stabilize uric acid levels, and participants were advised not to consume highly purine-enriched foods.

[12] = Study 2 safety: treatment-emergent adverse events; assay type: in vivo, human
Protocol: as §1

[13] = parameters: method as in PMID 22226086, PMID 22492586; settings: canagliflozin 300 mg b.i.d., cited from earlier work
[14] = canagliflozin + probenecid (test), geometric mean, n = 11
[15] = canagliflozin + probenecid vs canagliflozin alone
[16] = canagliflozin + probenecid, arithmetic mean (SD)
[17] = canagliflozin alone (reference), geometric mean, n = 11
[18] = canagliflozin alone, arithmetic mean (SD)
[19] = probenecid coadministration vs canagliflozin alone
[20] = canagliflozin and probenecid coadministration, 1/12

CO[C@H]1/C=C/O[C@@]2(C)Oc3c(C)c(O)c4c(O)c(c(/C=N/N5CCN(C)CC5)c(O)c4c3C2=O)NC(=O)/C(C)=C\C=C\[C@H](C)[C@H](O)[C@@H](C)[C@@H](O)[C@@H](C)[C@H](OC(C)=O)[C@@H]1C [rifampin]
increase in plasma rifampin concentration at 2 hours [1]: 24% | participants with TEAEs [2]: 50% | reduction of rifampin absorption [3]: 30%

Canagliflozin
substrate of OAT1 (OAT1): not a substrate | changes in clinical laboratory values, vital signs, physical examinations, or ECGs ([4]; any of the three studies): No consistent, clinically relevant changes | deaths, serious TEAEs, or discontinuations due to TEAEs ([4]; any of the three studies): No deaths, serious TEAEs, or discontinuations due to TEAEs | tolerability ([4]; canagliflozin 300 mg coadministered with rifampin, probenecid, and cyclosporine A, healthy participants): generally well-tolerated | AUC∞ ([5]; human): 20,938.95 ng×h/mL | CLR (renal clearance, Ae0–72/AUC0–72h) ([5]; human): 0.0849 (0.0318) L/h | Cmax ([5]; human): 2,358.29 ng/mL | t1/2 ([5]; human): 12.9 (2.42) h | tmax ([5]; human): 2.00 (1.00 – 4.00) h | AUC∞ ([5]; human, 300 mg): 21,695 (6151) ng×h/mL | Cmax ([5]; human, 300 mg): 2,474 (805) ng/mL | Ae (% dose): cumulative amount excreted into the urine [5]: 0.578 (0.180) % dose | substrate of P-glycoprotein (P-gp) (P-glycoprotein (P-gp)): substrate | AUCτ.ss [6]: 22,243.50 ng×h/mL | Cmax.ss [6]: 2,864.03 ng/mL | tmax.ss [6]: 2.00 (1.00 – 3.00) h | AUCτ.ss ([6]; 300 mg): 22,158 (4203) ng×h/mL | Cmax.ss ([6]; 300 mg): 2,887 (735) ng/mL | substrate of OATP1B1 (OATP1B1): not a substrate | substrate of OAT3 (OAT3): not a substrate | substrate of MRP2 [7]: substrate | participants with diarrhea ([8]; canagliflozin alone, 2/18): 11.1% | participants with oropharyngeal pain ([8]; canagliflozin alone, 2/18): 11.1% | participants reporting TEAEs ([8]; canagliflozin alone, 6/18): 33.3% | participants with flushing ([8]; canagliflozin and cyclosporine A coadministration, 15/18): 83.3% | participants reporting TEAEs ([8]; canagliflozin and cyclosporine A coadministration, 17/18): 94.4% | P-gp substrate status (P-gp): P-gp substrate | basal-to-apical/apical-to-basal efflux ratio (P-gp): 2.0 | canagliflozin dose excreted in urine as unchanged canagliflozin [9]: less than 1% | participants with TEAEs [10]: 21.4% | participants with abdominal discomfort [10]: 7.1% | participants with polyuria [10]: 7.1% | participants with thirst [10]: 7.1% | AUC∞.ss ([11]; canagliflozin 300 mg q.d. + probenecid 500 mg b.i.d. (day 17), arithmetic mean (SD), n = 12): 26,225 (5261) ng×h/mL | AUC∞.ss ([11]; canagliflozin 300 mg q.d. alone (day 14), arithmetic mean (SD), n = 12): 21,861 (4290) ng×h/mL | trough plasma concentration, mean (SD) ([11]; day 13): 381 (110) ng/mL | trough plasma concentration, mean (SD) ([11]; day 14): 366 (117) ng/mL | trough plasma concentration, mean (SD) ([11]; day 15): 358 (110) ng/mL | AUC∞.ss [11, 14]: 26,011.71 ng×h/mL | Cmax.ss [11, 14]: 3,008.66 ng/mL | AUCτ.ss, estimated ratio (test/reference) of geometric means (90% CI) [11, 15]: 120.74 (116.37; 125.27) % | AUC∞.ss, estimated ratio (test/reference) of geometric means (90% CI) [11, 15]: 120.74 (116.37; 125.27) % | Cmax.ss, estimated ratio (test/reference) of geometric means (90% CI) [11, 15]: 113.37 (100.37; 128.06) % | CLR (renal clearance, Ae24/AUC24) [11, 16]: 0.0569 (0.00944) L/h | % Ae (dose): cumulative amount excreted into the urine [11, 16]: 0.495 (0.136) % dose | tmax.ss ([11]; canagliflozin + probenecid): 1.67 (1.42 – 5.92) h | AUC∞.ss [11, 17]: 21,543.95 ng×h/mL | Cmax.ss [11, 17]: 2,653.85 ng/mL | CLR (renal clearance, Ae24/AUC24) [11, 18]: 0.0868 (0.0297) L/h | % Ae (dose): cumulative amount excreted into the urine [11, 18]: 0.609 (0.217) % dose | tmax.ss ([11]; canagliflozin alone): 1.92 (1.42– 3.92) h | Cmax.ss ([11]; plasma, canagliflozin 300 mg q.d. + probenecid 500 mg b.i.d. (day 17), arithmetic mean (SD), n = 12): 3,105 (680) ng/mL | Cmax.ss ([11]; plasma, canagliflozin 300 mg q.d. alone (day 14), arithmetic mean (SD), n = 12): 2,699 (814) ng/mL | decrease in mean CLR [11, 19]: ~ 34% | increase in AUCτ.ss (systemic exposure) [11, 19]: 21% | increase in Cmax.ss [11, 19]: 13% and ~ 13% | participants with headache ([12]; canagliflozin alone, 2/14): 14.3% | participants with ≥ 1 TEAE ([12]; canagliflozin alone, 4/14): 28.6% | participants with abdominal discomfort [12, 20]: 8.3% | participants with diarrhea [12, 20]: 8.3% | participants with headache [12, 20]: 8.3% | participants with muscle twitching [12, 20]: 8.3% | participants with musculoskeletal pain [12, 20]: 8.3% | participants with pruritis [12, 20]: 8.3% | participants with urethral pain [12, 20]: 8.3% | participants with ≥ 1 TEAE ([12]; canagliflozin and probenecid coadministration, 5/12): 41.7% | tolerability ([13]; 2-week multiple-dose study and 12-week dose-ranging study in T2DM): well-tolerated | plasma AUCτ.ss higher than with the 300 mg q.d. dose [13]: 93% | plasma Cmax.ss higher than with the 300 mg q.d. dose [13]: 32%
